Calls of active or inactive are those of the source.
Columns and labels:
[1] = inhibitors of intracellular T. cruzi replication, confirmation, NIH3T3 host cells, beta-gal luminescence (AID 2044); type: functional, cell-based;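 also: intracellular parasites grown in NIH/3T3 mouse fibroblasts as host cells; luminescent beta-galactosidase reporter signal from transgenic T. cruzi replicating inside host cells; inhibitors lower the luminescence signal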
[2] = THP-1 cell cytotoxicity, dose response, cytotoxicity control for Vif-APOBEC3G degradation inhibitor project, THP-1 cells (AID 1117359); type: functional; conditions: Human immunodeficiency virus 1, THP-1
[3] = target: T1, Corticotropin-releasing factor receptor 2/Corticotropin-releasing factor-binding protein (Homo sapiens, UniProt P24387+Q13324); assay: Dose Response confirmation of uHTS hits for small molecule antagonists of the CRF-binding protein and CRF-R2 receptor complex.; type: functional; conditions: read-out: IC50_Mean
T1 sequence (Q13324 whole entry): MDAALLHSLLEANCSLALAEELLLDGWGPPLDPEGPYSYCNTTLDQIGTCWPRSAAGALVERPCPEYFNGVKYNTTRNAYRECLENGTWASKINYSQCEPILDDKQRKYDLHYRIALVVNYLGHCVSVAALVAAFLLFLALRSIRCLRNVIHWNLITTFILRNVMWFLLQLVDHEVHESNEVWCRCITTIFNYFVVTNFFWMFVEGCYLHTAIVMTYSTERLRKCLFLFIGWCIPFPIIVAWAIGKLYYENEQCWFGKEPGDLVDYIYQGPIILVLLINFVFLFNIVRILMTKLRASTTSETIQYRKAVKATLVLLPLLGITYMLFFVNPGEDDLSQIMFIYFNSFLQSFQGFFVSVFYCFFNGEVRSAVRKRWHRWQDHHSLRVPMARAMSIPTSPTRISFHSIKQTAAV
T1 sequence (P24387 whole entry): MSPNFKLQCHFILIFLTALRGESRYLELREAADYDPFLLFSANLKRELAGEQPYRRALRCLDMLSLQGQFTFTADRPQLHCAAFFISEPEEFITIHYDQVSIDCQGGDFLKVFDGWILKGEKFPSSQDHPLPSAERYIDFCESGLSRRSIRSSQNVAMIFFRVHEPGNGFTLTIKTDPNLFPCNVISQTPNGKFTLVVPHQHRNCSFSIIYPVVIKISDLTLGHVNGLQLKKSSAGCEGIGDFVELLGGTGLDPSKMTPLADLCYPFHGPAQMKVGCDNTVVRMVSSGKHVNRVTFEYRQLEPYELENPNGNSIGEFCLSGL

[4] = cytotoxicity toward NIH3T3 fibroblasts, dose response, counter-screen, cell-based, ATP luminescence, mouse fibroblasts (AID 2010); type: functional;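 also: cells exposed to compound for about 90 hours before reading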
[5] = target: T1, Corticotropin-releasing factor receptor 2/Corticotropin-releasing factor-binding protein; assay: activators of CRF receptor 2 with binding protein – uHTS hits, confirmation (AID 602473); type: functional; conditions: read-out: EC50_Mean
[6] = target: T2, Short transient receptor potential channel 4 (Mus musculus, UniProt Q9QUQ5); assay: mouse TRPC4 channel inhibitors, dose response, cell-based, HEK293 TRPC4/mu-opioid, Fluo-4 calcium (AID 434942); type: functional;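 also: potency of inhibitors blocking the TRPC4 calcium response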
T2 sequence (Q9QUQ5 whole entry): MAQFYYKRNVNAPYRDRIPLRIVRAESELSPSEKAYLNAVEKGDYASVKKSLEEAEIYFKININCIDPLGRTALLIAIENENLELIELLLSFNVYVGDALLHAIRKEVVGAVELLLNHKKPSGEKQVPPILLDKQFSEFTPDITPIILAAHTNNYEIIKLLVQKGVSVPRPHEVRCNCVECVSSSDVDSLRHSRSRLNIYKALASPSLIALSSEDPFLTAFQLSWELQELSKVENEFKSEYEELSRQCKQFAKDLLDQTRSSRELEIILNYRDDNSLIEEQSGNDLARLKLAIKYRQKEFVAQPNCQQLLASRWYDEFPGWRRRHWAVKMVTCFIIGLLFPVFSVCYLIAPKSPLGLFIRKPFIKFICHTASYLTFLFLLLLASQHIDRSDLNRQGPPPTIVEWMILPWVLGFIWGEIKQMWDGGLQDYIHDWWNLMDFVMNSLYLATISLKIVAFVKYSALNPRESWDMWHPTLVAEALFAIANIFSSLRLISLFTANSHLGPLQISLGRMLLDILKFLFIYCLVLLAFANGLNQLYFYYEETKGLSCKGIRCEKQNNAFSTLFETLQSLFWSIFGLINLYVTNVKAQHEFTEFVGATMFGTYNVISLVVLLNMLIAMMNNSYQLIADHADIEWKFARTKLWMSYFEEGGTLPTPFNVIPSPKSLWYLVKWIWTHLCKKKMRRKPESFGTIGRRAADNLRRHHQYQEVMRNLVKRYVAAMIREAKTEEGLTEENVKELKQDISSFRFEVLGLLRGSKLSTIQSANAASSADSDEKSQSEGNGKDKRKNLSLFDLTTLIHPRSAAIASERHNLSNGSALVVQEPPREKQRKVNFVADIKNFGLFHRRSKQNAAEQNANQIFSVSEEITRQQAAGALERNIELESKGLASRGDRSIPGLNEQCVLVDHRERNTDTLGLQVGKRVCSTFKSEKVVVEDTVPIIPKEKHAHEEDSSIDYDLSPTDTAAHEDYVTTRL

[7] = system: HEK293; assay: NOD2 signaling inhibitors in MDP-stimulated cells, cell-based, uHTS, luminescence (AID 2001); type: functional; conditions: Homo sapiens
[8] = system: HEK293; assay: NOD1 signaling inhibitors, primary screen, cell-based, luminescence, uHTS (AID 1578); type: functional; conditions: Homo sapiens
[9] = system: HEK293; assay: cells; type: functional, cell-based; conditions: Homo sapiens
[10] = target: Nucleotide-binding oligomerization domain-containing protein 2 (Homo sapiens, UniProt Q9HC29); assay: NOD2 signaling inhibitors, cell-based, luminescence, uHTS, HEK293 (AID 1566); type: functional
[11] = system: HEK293; assay: cells; type: functional, cell-based; conditions: Homo sapiens; remark: listed apart in the source
[12] = system: HEK293; assay: cells; type: functional, cell-based; conditions: Homo sapiens; remark: listed apart in the source
[13] = target: T3, Estrogen receptor (Homo sapiens, UniProt P03372);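 also: potency for inhibiting coactivator peptide recruitment to the receptor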
T3 sequence (P03372 whole entry): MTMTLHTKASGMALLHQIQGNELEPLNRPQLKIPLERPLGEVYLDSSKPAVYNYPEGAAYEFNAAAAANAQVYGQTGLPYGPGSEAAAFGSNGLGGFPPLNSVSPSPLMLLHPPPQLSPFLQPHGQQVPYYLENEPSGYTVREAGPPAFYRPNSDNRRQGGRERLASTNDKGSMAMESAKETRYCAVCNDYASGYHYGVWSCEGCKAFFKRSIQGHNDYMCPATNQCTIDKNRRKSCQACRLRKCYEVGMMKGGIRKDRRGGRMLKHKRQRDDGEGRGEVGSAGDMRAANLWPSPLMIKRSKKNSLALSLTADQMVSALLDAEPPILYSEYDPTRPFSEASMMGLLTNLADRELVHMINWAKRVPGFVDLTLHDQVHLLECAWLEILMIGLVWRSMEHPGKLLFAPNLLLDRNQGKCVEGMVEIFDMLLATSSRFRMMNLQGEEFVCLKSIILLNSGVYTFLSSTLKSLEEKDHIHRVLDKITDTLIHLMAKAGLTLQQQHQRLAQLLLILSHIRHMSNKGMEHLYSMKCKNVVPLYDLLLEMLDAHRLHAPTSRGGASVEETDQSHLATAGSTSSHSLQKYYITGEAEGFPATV

[14] = cells; type: functional
[15] = THP-1 cell cytotoxicity, dose response, cytotoxicity control for non-replicating M. tuberculosis project (AID 489025); type: functional
[16] = Vero E6 cell cytotoxicity, dose response, cytotoxicity control for non-replicating M. tuberculosis project, secondary assay (AID 492998); type: functional, VeroE6; conditions: Vero C1008
[17] = target: T4, Rac GTPase-activating protein 1 (Homo sapiens, UniProt Q9H0H5); assay: MgcRacGAP GTPase-activating activity inhibitors, confirmation, biochemical, ADP Hunter fluorescence, primary and confirmatory (AID 624330); type: functional
T4 sequence (Q9H0H5 whole entry): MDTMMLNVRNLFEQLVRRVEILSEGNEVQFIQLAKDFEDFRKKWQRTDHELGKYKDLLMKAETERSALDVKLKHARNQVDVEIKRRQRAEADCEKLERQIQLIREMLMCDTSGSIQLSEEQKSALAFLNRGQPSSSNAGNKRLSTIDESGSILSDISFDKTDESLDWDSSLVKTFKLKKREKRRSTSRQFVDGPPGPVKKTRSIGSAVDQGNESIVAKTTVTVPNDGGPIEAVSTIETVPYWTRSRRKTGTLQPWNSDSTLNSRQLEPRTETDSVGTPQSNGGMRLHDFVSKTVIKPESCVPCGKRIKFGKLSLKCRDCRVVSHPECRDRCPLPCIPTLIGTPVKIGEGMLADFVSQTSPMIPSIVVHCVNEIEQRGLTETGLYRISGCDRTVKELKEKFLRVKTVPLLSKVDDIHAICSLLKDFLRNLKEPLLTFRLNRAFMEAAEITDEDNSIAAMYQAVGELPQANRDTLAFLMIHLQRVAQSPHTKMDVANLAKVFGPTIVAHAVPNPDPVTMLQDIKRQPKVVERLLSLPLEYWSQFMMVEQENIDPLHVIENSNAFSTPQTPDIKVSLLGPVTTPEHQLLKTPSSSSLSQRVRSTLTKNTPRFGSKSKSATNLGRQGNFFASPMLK

Nucleotide-binding oligomerization domain-containing protein 2, sequence (Q9HC29 whole entry, the tested form may be a part): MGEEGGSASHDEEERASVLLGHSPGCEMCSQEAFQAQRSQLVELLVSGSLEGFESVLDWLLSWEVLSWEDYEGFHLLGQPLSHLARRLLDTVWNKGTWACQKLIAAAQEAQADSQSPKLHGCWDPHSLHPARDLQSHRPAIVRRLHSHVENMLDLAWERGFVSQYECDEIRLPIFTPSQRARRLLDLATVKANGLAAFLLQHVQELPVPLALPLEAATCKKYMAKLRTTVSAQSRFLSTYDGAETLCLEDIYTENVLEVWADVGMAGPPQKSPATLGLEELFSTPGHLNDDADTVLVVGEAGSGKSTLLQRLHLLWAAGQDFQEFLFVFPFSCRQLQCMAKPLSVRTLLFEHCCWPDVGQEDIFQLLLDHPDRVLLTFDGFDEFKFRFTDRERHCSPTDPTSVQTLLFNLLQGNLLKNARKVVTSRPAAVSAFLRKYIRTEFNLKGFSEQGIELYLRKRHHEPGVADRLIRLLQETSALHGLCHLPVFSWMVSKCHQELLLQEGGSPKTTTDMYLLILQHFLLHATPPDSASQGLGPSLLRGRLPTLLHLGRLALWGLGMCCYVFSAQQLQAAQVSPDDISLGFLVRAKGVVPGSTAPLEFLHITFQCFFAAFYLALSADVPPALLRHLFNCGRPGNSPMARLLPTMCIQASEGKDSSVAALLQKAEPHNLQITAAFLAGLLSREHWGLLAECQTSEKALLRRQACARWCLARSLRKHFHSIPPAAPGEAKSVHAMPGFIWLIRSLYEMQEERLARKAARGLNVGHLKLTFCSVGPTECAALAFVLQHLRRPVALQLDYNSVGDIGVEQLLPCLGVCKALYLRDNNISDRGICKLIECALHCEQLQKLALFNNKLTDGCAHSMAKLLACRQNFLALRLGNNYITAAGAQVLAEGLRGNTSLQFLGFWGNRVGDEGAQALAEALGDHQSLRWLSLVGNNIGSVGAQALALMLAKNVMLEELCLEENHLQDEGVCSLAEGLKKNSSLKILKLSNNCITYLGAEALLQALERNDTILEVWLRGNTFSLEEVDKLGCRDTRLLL

For CCOC(=O)c1c(C)[nH]c(C(=O)OCC(=O)Nc2sc(C(=O)N(C)C)c(C)c2C(=O)OCC)c1C, the EC50 [1] was 0.36 µM (active), the CC50 [2] was > 40 µM (active) and the IC50 [3] was > 47.1 µM (inactive). For the same compound, the EC50 [4] was > 60 µM (not active) and the EC50 [5] was > 53 µM (inactive).
With Cc1cccc(CCN(C(=O)c2snc(C(N)=O)c2N)C(C(=O)NCC2CCCO2)c2ccc(F)cc2)c1 (stereo unspecified) the EC50 [6] was 2.66 µM (active).
In the case of Cc1cc(C)cc(OCC(=O)Nc2nc3ccc([N+](=O)[O-])cc3s2)c1, the IC50 [7] is reported as 8.1 µM (active), the EC50 [8] is reported as 4.56 µM (active) and the IC50 [9] is reported as 1.83 µM (active). The EC50 [10] was 7.65 µM (active), the IC50 [11] was > 20 µM (inactive) and the IC50 [12] was > 20 µM (inactive).
With O=c1[nH]c2cc3c(cc2cc1CN(Cc1cccs1)Cc1nnnn1Cc1ccco1)OCCO3 the IC50 [13] was > 50 µM (not active).
In the case of CC(=O)CC1(OC(C)=O)C(=O)N(C)c2ccccc21 (stereo unspecified), the IC50 [14] is reported as 14.4 µM (active), the CC50 [15] is reported as 35.5 µM (active) and the CC50 [16] is reported as 15.5 µM (active).
For CC1CCc2sc3ncnc(N4CCOCC4)c3c2C1 (stereo unspecified), the IC50 [7] was 4.85 µM (active), the EC50 [8] was 6.02 µM (active) and the IC50 [9] was 3.54 µM (active). For the same compound, the EC50 [10] was 8.76 µM (active), the IC50 [11] was > 20 µM (inactive) and the IC50 [12] was > 20 µM (inactive).
With CCOc1cc(/C=C2\C(=N)N3N=CSC3=NC2=O)ccc1OS(=O)(=O)c1ccccc1 the EC50 [6] was 4.73 µM (active).
With C=CCc1ccc(OCCOCCNCCCC)c(OC)c1 the IC50 [17] was 132 µM (active) and the CC50 [2] was > 40 µM (active).
For COc1ccc(-n2nc(C(=O)Nc3ccc(OC)c(OC)c3)c3c4ccccc4n(C)c3c2=O)cc1, the IC50 [13] was > 50 µM (not active).
